What follows are molecules tested against human NaV1.7 (Homo sapiens (Human), UniProt Q15858) (assay: Patch voltage clamp electrophysiology assay, NaV1.7). Details: inactivated state; HEK-293 cells stably expressing NaV1.7 with β1 subunit; held at −60 mV; read-out: Human 1.7 EP (IC50 μM).
Assay type: cell-based

human NaV1.7, sequence (Q15858 other isoform, or with tags, fused parts or gaps): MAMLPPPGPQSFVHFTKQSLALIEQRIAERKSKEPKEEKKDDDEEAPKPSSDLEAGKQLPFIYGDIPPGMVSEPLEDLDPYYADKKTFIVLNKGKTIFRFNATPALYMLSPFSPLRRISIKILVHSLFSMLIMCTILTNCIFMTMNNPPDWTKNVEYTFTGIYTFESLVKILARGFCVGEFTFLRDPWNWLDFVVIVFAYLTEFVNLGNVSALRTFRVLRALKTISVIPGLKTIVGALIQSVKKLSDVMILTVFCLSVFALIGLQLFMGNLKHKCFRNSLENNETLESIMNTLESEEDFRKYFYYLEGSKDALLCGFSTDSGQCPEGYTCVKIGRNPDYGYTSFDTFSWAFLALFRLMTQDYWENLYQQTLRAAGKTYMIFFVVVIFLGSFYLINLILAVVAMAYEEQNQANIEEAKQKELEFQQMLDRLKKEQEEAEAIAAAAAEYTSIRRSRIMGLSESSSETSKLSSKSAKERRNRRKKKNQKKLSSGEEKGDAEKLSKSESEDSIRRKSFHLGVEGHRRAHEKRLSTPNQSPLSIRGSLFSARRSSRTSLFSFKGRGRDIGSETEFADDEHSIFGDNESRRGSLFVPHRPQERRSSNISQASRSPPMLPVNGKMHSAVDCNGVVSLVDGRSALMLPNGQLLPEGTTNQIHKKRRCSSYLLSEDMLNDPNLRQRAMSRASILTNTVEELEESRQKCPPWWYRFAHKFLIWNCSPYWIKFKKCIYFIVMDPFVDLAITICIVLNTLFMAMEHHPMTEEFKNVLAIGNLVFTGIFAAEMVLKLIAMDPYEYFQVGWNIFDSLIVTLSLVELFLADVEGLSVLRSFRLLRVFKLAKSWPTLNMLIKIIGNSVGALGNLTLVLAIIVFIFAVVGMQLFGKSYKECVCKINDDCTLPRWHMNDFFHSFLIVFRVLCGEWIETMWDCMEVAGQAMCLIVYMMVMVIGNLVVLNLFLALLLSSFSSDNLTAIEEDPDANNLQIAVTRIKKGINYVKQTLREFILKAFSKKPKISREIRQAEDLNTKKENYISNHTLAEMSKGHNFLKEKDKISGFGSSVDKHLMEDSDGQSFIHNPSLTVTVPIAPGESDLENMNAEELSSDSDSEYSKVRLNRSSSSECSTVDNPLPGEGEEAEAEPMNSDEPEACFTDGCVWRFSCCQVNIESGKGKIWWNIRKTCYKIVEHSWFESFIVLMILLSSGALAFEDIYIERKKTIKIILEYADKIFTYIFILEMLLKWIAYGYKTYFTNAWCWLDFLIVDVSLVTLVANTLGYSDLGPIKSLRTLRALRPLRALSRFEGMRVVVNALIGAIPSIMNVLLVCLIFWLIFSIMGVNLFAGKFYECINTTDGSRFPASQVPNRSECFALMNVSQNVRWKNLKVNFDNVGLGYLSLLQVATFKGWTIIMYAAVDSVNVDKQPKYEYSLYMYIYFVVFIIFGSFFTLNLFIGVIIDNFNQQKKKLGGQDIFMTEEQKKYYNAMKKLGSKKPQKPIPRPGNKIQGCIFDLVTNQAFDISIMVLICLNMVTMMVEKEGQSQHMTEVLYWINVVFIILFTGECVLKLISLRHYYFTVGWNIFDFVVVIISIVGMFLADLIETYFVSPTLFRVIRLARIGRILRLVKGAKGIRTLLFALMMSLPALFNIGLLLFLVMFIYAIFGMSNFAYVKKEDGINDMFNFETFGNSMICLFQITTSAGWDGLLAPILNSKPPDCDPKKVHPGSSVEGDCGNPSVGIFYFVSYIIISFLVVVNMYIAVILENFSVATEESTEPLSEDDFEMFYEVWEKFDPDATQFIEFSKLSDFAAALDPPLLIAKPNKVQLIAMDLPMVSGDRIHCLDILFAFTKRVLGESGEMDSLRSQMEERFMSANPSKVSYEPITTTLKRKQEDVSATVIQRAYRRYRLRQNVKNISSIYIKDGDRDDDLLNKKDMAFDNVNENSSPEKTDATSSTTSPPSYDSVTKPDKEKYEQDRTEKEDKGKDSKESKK
human NaV1.7, sequence (Q07699 19-218 partner): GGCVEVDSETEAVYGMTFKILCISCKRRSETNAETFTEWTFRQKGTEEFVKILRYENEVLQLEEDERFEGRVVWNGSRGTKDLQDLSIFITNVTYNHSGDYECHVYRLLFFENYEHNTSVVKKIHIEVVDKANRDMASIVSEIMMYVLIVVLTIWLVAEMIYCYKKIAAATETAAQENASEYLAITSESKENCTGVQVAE

IC50 [µM] | Molecule
0.0036 | 4-(bicyclo[2.2.1]heptan-2-yloxy)-5-chloro-2-fluoro-N-(methylsulfonyl)-benzamide [Example 145]
0.00131 | CN(C)S(=O)(=O)NC(=O)c1cc(Cl)c(OCC23CC4CC(CC(F)(C4)C2)C3)cc1F [Example 86, 5-chloro-N-(N N-dimethylsulfamoyl)-2-fluoro-4-((3-fluoroadamantan-1-yl)methoxy)benzamide]
0.171 | CC1(C)C2CCC1(C)C(Oc1cc(F)c(C(=O)NS(C)(=O)=O)cc1Cl)C2 (stereo not drawn) [Example 15, 5-chloro-2-fluoro-N-(methylsulfonyl)-4-((exo-1,7,7-trimethylbicyclo[2.2.1]heptan-2-yl)oxy)benzamide]
0.0416 | 5-chloro-4-(3-cyclohexylpropoxy)-N-(N,N-dimethylsulfamoyl)-2-fluorobenzamide [Example 82]
0.0658 | 5-Chloro-2-fluoro-N-(methylsulfonyl)-4-((2,2,3,3-tetramethylcyclopropyl)-methoxy)benzamide [Example 34]
0.123 | 4-(2-(adamantan-1-yl)ethoxy)-3-chloro-N-(methylsulfonyl)benzamide [Example 13]
2.25 | 4-(adamantan-1-ylmethoxy)-5-chloro-N-(N,N-dimethylsulfamoyl)-2-fluorobenzamide [Example 28]
0.0077 | 5-chloro-2-fluoro-N-(methylsulfonyl)-4-((1-(trifluoromethyl)cyclopropyl)-methoxy)benzamide [Example 36]
0.0854 | CN(C)S(=O)(=O)NC(=O)c1cc(Cl)c(OC2CCC3(CCCCC3)CC2)cc1F [Example 79]
0.0386 | 4-(1-(adamantan-1-yl)ethoxy)-5-chloro-2-fluoro-N-(methylsulfonyl)benzamide [Example 19]

Molecule | IC50 [µM]
CS(=O)(=O)NC(=O)c1cc(Cl)c(OC2[C@@H]3CC4C[C@H]2CC(Cl)(C4)C3)cc1F (stereo partly drawn) [Example 25, 5-chloro-4-(((1R,2r,3S,5s,7s)-5-chloroadamantan-2-yl)oxy)-2-fluoro-N-(methylsulfonyl)benzamide] | 0.027

Each molecule was assayed against human NaV1.5 (Homo sapiens (Human), UniProt Q14524) (assay: Patch voltage clamp electrophysiology assay, NaV1.5). Details: read-out: Human 1.5 EP IC50 μM; inactivated state; HEK-293 cells stably expressing NaV1.5 with β1 subunit; held at −60 mV.

Molecule | IC50 [µM]
4-(adamantan-1-ylmethoxy)-5-chloro-2-fluoro-N-(methylsulfonyl)benzamide [Example 8] | 1.07
